What was measured:
Assay in all cases: Kinase selectivity, DiscoverX scanMAX Kinase assay panel (% control)
Format in all cases: binding
[1] = target: T1, kinases of the scanMAX Kinase assay panel (Homo sapiens, UniProt Q9Y2H9); conditions: MAST1; 1 uM
T1 construct: purchased DiscoverX Co. (contract measurement) scanMAX Kinase assay panel
Outline: (§1)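 Each enzyme is treated with drug at 1 uM in DMSO, then signal is scaled between a positive control (0%) and DMSO (100%) to give % control. Kinases with % control under 35% are scored as inhibited.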

[2] = target: T2, kinases of the scanMAX Kinase assay panel (Homo sapiens, UniProt Q6XUX3); conditions: kinase RIPK5; 1 uM in DMSO
T2 construct: purchased DiscoverX Co. (contract measurement) scanMAX Kinase assay panel
T2 sequence (Q6XUX3 1-929): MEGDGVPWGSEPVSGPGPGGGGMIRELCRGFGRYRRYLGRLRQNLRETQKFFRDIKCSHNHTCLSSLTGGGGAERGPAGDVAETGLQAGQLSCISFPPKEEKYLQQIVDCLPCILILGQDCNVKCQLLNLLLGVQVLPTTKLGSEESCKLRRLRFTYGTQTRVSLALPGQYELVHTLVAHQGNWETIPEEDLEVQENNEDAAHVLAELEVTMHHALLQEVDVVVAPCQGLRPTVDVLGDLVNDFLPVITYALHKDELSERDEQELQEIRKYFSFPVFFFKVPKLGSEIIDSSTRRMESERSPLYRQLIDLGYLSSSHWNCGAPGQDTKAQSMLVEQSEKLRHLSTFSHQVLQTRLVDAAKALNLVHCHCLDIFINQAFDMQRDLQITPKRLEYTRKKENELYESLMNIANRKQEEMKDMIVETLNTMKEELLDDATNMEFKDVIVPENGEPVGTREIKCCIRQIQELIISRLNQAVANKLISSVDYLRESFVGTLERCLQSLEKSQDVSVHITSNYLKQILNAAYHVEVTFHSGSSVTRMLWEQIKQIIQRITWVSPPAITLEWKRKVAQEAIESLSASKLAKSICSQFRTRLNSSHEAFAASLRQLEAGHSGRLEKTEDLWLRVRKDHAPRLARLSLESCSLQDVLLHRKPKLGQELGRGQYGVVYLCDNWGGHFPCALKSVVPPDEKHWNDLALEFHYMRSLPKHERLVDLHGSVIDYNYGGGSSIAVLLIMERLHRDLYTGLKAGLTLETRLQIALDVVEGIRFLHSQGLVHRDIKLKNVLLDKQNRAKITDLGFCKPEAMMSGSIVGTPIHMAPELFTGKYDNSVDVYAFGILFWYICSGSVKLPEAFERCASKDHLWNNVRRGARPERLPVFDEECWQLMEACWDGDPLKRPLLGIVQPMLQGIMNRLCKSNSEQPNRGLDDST
Outline: as §1

[3] = target: T3, kinases of the scanMAX Kinase assay panel (Homo sapiens, UniProt Q9P2K8, S808G); conditions: GCN2(Kin.Dom.2, S808G); 1 uM
T3 construct: purchased DiscoverX Co. (contract measurement) scanMAX Kinase assay panel
Outline: as §1

[4] = target: T4, kinases of the scanMAX Kinase assay panel (Homo sapiens, UniProt Q9Y4K4); conditions: MAP4K5; 1 uM
T4 construct: purchased DiscoverX Co. (contract measurement) scanMAX Kinase assay panel
Outline: as §1

[5] = target: T5, kinases of the scanMAX Kinase assay panel (Homo sapiens, UniProt Q00532); conditions: CDKL1; 1 uM
T5 construct: purchased DiscoverX Co. (contract measurement) scanMAX Kinase assay panel
Outline: as §1

[6] = target: T6, kinases of the scanMAX Kinase assay panel (Homo sapiens, UniProt P49336); conditions: CDK8; 1 uM
T6 construct: purchased DiscoverX Co. (contract measurement) scanMAX Kinase assay panel
Outline: as §1

[7] = target: T7, kinases of the scanMAX Kinase assay panel (Homo sapiens, UniProt Q99755); conditions: PIP5K1A; 1 uM
T7 construct: purchased DiscoverX Co. (contract measurement) scanMAX Kinase assay panel
Outline: as §1

[8] = target: T8, kinases of the scanMAX Kinase assay panel (Homo sapiens, UniProt Q9BUB5); conditions: MKNK1; 1 uM
T8 construct: purchased DiscoverX Co. (contract measurement) scanMAX Kinase assay panel
Outline: as §1

[9] = target: T9, kinases of the scanMAX Kinase assay panel (Homo sapiens, UniProt O94806); conditions: PRKD3; 1 uM
T9 construct: purchased DiscoverX Co. (contract measurement) scanMAX Kinase assay panel
T9 sequence (O94806 1-890): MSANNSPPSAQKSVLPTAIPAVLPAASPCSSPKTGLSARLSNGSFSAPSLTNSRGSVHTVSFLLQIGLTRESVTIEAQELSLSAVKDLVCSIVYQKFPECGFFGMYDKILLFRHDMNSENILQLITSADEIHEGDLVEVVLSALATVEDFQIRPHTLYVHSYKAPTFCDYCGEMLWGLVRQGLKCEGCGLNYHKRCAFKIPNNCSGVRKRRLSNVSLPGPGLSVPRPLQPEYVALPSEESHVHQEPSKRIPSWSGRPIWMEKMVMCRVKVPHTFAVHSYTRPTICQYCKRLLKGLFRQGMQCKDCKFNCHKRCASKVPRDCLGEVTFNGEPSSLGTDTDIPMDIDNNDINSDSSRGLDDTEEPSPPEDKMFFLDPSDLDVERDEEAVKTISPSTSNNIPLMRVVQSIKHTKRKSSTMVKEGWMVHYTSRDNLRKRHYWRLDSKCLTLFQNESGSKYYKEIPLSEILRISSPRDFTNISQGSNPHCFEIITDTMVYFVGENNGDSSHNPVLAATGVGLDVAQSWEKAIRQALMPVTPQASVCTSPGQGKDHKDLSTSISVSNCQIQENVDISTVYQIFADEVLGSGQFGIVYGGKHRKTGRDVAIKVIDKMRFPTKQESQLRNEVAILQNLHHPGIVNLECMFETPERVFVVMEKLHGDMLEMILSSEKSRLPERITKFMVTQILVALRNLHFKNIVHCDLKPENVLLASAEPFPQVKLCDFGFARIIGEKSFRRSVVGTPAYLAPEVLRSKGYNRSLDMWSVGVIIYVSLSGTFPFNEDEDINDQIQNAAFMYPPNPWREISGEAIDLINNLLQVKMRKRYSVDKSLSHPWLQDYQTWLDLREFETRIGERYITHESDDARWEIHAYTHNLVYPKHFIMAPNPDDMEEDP
Outline: as §1

[10] = target: T10, kinases of the scanMAX Kinase assay panel (Homo sapiens, UniProt Q8N568); conditions: DCAMKL2; 1 uM
T10 construct: purchased DiscoverX Co. (contract measurement) scanMAX Kinase assay panel
Outline: as §1

T7 sequence (Q99755 whole entry): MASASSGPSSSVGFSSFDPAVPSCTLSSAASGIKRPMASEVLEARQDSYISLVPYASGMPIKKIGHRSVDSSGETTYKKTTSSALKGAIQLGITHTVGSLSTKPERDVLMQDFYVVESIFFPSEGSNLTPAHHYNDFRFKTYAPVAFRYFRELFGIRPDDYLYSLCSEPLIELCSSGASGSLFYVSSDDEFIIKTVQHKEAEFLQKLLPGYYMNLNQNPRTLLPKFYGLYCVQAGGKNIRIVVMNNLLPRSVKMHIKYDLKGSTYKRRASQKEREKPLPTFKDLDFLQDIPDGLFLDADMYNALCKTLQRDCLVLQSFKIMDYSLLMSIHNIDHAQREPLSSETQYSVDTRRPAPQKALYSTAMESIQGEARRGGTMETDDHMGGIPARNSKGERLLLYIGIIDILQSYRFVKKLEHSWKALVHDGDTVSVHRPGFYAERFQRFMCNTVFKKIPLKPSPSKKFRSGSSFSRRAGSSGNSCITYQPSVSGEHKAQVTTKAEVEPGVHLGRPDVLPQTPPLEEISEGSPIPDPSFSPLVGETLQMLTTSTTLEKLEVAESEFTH
T8 sequence (Q9BUB5 whole entry): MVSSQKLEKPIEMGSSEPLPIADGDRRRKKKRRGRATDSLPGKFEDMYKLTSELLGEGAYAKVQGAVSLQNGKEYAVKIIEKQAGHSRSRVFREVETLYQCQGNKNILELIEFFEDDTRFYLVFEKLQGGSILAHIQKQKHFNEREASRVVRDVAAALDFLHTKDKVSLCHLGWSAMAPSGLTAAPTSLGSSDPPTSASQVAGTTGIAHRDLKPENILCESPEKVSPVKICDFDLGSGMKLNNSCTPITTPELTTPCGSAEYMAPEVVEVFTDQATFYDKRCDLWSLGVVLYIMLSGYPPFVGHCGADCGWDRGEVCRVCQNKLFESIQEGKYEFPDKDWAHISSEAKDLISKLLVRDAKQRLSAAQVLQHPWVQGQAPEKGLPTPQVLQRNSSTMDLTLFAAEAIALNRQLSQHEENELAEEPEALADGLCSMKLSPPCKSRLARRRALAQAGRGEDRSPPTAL
T6 sequence (P49336 whole entry): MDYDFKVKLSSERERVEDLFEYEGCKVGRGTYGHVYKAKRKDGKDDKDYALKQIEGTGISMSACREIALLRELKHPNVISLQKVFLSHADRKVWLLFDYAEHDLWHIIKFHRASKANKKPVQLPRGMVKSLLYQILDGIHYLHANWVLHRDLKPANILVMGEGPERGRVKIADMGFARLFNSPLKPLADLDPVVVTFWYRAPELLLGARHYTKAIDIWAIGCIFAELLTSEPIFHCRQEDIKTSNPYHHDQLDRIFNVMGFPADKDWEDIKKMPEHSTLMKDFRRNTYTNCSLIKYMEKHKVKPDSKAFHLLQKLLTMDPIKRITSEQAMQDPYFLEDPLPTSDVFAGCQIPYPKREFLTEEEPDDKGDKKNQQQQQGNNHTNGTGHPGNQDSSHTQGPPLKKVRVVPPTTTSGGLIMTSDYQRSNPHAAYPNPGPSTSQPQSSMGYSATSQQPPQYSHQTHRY
T10 sequence (Q8N568 whole entry): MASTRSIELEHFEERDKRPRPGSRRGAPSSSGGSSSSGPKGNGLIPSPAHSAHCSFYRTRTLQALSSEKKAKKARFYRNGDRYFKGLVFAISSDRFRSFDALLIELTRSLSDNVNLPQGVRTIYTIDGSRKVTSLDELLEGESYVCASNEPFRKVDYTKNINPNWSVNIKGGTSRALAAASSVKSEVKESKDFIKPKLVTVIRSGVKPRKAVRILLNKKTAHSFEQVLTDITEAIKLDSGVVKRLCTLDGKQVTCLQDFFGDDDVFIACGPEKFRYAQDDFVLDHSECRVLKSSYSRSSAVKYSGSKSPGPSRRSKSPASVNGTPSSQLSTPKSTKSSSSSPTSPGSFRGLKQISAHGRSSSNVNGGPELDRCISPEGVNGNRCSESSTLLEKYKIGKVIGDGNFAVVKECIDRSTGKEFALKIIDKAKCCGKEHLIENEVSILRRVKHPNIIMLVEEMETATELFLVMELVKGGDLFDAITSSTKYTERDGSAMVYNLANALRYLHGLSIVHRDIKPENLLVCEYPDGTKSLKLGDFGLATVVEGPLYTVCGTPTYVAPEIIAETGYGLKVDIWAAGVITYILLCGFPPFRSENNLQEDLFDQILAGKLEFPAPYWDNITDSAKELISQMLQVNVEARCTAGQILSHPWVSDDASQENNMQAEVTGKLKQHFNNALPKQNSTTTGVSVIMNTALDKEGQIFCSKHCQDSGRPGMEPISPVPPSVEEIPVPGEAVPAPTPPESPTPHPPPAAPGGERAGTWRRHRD
T1 sequence (Q9Y2H9 whole entry): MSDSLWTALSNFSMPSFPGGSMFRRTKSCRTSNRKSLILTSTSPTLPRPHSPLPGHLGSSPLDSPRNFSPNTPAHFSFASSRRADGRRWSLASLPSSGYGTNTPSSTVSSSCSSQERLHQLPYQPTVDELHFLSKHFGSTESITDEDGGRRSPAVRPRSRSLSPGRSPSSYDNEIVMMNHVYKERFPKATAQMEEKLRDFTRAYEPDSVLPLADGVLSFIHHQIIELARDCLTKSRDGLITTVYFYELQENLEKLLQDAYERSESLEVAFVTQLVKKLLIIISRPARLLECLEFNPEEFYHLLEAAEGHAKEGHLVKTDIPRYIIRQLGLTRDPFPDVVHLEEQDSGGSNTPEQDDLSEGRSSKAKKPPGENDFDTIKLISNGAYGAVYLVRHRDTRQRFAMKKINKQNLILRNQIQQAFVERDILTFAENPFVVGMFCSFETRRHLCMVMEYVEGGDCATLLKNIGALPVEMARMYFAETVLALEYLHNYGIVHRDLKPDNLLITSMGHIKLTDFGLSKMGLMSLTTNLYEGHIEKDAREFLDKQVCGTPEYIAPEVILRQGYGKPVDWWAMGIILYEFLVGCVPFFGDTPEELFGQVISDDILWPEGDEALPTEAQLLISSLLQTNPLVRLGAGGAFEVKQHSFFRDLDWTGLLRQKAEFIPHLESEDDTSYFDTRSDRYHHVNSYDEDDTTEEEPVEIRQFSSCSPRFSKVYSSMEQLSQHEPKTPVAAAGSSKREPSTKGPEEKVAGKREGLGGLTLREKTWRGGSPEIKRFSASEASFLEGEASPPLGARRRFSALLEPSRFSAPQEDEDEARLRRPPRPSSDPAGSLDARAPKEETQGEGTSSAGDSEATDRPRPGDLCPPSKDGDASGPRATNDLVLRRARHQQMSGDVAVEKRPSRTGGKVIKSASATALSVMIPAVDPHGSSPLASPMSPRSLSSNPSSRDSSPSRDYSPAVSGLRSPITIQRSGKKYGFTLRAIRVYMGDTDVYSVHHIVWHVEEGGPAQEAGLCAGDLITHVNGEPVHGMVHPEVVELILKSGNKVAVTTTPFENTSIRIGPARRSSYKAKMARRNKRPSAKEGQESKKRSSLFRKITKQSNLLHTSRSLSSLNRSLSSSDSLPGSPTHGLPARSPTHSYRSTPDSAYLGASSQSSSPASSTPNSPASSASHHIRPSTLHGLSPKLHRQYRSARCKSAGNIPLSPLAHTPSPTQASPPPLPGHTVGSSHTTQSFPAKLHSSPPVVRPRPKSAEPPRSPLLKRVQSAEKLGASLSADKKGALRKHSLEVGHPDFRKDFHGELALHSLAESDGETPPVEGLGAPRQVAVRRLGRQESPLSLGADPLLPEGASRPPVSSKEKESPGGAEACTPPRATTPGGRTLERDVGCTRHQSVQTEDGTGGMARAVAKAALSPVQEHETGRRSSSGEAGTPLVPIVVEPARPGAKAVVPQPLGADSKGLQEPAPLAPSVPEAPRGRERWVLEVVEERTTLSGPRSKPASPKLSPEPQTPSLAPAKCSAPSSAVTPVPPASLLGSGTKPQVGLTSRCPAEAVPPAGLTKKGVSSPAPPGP
T4 sequence (Q9Y4K4 whole entry): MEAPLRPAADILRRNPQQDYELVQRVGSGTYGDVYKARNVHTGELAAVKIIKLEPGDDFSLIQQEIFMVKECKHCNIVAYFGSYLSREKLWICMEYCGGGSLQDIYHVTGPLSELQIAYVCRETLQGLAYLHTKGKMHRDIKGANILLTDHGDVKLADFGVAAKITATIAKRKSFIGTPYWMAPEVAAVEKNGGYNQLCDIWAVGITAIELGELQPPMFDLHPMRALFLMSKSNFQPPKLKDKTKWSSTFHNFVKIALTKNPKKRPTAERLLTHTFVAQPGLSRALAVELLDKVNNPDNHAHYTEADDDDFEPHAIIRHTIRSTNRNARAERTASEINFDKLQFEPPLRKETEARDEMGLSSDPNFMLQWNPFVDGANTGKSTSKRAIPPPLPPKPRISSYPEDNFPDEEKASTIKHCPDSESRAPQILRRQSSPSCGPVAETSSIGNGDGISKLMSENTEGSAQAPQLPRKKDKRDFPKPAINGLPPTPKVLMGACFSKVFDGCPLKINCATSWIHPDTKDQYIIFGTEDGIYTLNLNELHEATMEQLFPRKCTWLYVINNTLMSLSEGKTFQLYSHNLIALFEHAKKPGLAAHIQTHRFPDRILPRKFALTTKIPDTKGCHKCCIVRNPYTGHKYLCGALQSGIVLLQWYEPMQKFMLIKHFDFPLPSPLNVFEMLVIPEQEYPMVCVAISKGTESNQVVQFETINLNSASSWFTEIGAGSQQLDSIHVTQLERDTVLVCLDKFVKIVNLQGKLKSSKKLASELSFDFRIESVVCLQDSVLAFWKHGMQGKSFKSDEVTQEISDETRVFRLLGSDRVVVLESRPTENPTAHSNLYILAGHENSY
T5 sequence (Q00532 whole entry): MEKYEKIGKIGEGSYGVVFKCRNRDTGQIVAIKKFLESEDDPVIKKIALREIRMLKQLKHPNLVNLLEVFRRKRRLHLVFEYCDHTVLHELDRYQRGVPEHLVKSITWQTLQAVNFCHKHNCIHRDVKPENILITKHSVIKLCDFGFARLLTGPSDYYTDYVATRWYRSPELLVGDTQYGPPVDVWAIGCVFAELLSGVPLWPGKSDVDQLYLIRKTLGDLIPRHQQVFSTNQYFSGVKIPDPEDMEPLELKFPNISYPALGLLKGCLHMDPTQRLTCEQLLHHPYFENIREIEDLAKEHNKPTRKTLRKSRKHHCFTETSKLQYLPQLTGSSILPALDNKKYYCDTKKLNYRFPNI

SMILES	remaining binding at 1 µM [1]	remaining binding at 1 µM [2]	remaining binding at 1 µM [3]	remaining binding at 1 µM [4]	remaining binding at 1 µM [5]	remaining binding at 1 µM [6]	remaining binding at 1 µM [7]	remaining binding at 1 µM [8]	remaining binding at 1 µM [9]	remaining binding at 1 µM [10]
CC1(Nc2nc(Nc3cnn([C@H]4CCN(C5COC5)C[C@@H]4F)c3Cl)nc3[nH]cc(C#N)c23)CC1 [Example 52, 2-((5-chloro-1-((3S,4S)-3-fluoro-1-(oxetane-3-yl)piperidine-4-yl)-1H-pyrazole-4-yl)amino)((1-methylcyclopropyl)amino)-7H-pyrrolo[2,3-d]pyrimidine-5-carbonitrile]	74%	3.7%	33%	30%	46%	76%	2.5%	100%	0.7%	76%
CNc1nc(Nc2ccc(C(=O)N3CCOCC3)cc2OC)nc2[nH]cc(C#N)c12 [Example 1, 2-((2-methoxy-4-(morpholine-4-carbonyl)phenyl)amino)-4-(methylamino)-7H-pyrrolo[2,3-d]pyrimidine-5-carbonitrile]	100%	10%	93%	89%	89%	100%	99%	62%	39%	91%
CCNc1nc(Nc2ccc(C(=O)N3CCC(N4CCOCC4)CC3)cc2OC)nc2[nH]cc(C(F)(F)F)c12 [Example 104, (4-((4-(ethylamino)-5-(trifluoromethyl)-7H-pyrrolo[2,3-d]pyrimidine-2-yl)amino)-3-methoxyphenyl)(4-morpholinopiperidine-1-yl)methanone]	72%	18%	64%	100%	88%	86%	100%	100%	17%	93%
